Data: patent publication US20040214803A1, “Use of vitamin d3 analogue for the treatment of autoimmune diabetes” (priority 2001, published 2004)

Columns and labels:
aortic allografts = experiment: Aortic allograft histology: inflammatory cell infiltrate; format: in vivo, mouse; details: 0.03 μg/kg p.o., 60 days after transplantation
Description: Histology: Segments of aorta grafts were snap-frozen in Tissue Tek (Miles Laboratories, Elkhart, Ind.), and stored at −80° C. Frozen sections, 5 μm thick, were stained with hematoxylin and eosin, or with biotinylated mAbs against CD4, CD8, B220, CD11b or CD11c (all purchased from PharMingen, San Diego, Calif.), followed by streptavidin-peroxidase conjugate. 3-amino-9-ethylcarbazole (DAKO, Carpenteria, Calif.) was used as chromogen, and hematoxylin as a counterstain. The effect of Compound A in preventing chronic rejection was evaluated using the aortic graft model in the mouse. Graft combinations were syngeneic or allogeneic. In allogeneic combinations, recipient mice were treated orally with vehicle alone or containing Compound A (0.03 μg/kg) fives times per week, from day 0 to day 30 relative to the time of grafting. Aortic grafts were analyzed 60 days after transplantation.

CD4+ T cells = experiment: Intracellular cytokine production by CD4+ cells from treated NOD mice (PMA and ionomycin, flow cytometry); format: in vivo, mouse
Description: After removal of all visible pancreatic lymph nodes, pancreata were individually digested in 3 ml HBSS containing 1 mg/ml collagenase IV (Sigma), by shaking (200 rpm) at 37° C. for 15 min. Single cell suspensions were collected after diluting the enzyme with ice-cold HBSS containing 5% FCS (FETAL CALF SERUM) and removal of the aggregates by settling for 2 min on ice. Aggregates were further digested with collagenase IV at 0.5 mg/ml for 10 min, and at 0.25 mg/ml for 6 min. Single cell suspensions were washed three times, and passed over a MASC Pre-separation filter (Miltenyi Biotec) to remove cell aggragetes and clumps. Single cell suspensions were incubated with anti-CD4 mAb-coated Microbeads (Miltenyi Biotec) and applied onto Mini-MACS columns (Miltenyi Biotec). This procedure yielded a positive fraction containing CD4^+ cells. Immediately after purification cells were stimulated with PMA (PHORBOL MYRISTIC ACETATE) and ionomycin in complete medium, fixed, and stained the next day for intracellular production of cytokines.
Cells were stained for IFN-γ, IL-4, IL-10 and IL-2 as previously described (Trembleau, S., et al. Eur J Immunol. 1997,27:2330-2339). Reagents for intracytoplasmic staining contained 1% FCS, 0.5% saponin (Sigma), and 0.1% sodium azide. All incubations were performed at room temperature. Cells were washed, pre-incubated for 10 min with PBS(phosphate buffered saline)/FCS/saponin, and then incubated with FITC(fluorescein isothiocyanate)-labeled rat anti-mouse IFN-γ (XMG1.2) and PE (phycoerythrin)-labeled rat anti-IL-2 (JE56-5H4), rat anti-mouse IL-4 (11B11), or PE-labeled rat anti-mouse IL-10 (JES5-16E3). Isotype controls were FITC- and PE-labeled rat IgG1 (R3-34). After 30 min, cells were washed twice with PBS/FCS/saponin and then with PBS containing 5% of FCS without saponin to allow membrane closure. The cell surface was then stained with CyChrome-labeled anti-CD4 (L3T4) for 15 min at room temperature. Analysis was performed with a FACScan flow cytometer (Becton Dickinson, Mountain View, Calif.) equipped with CellQuest software, and 10,000 events were acquired.
To identify mechanisms accounting for the reduced type 1 DM development in 1,25-dihydroxy-16,23Z-diene-26,27-hexafluoro-19-nor vitamin D3-treated NOD mice, the cytokines produced by CD4^+ T cells in the spleen, pancreatic lymph node and pancreas-infiltrating cells of […] NOD mice, treated from 8 to 16 weeks of age with Compound A or vehicle were analyzed.
FIG. 4. (page 4/9) Cytokine production by CD4^+ cells from spleen, pancreatic lymph node and pancreas-infiltrating cells. Spleen (A), pancreatic lymph node (B) and pancreas-infiltrating (C) CD4^+ cells were obtained from untreated 8 week-old or 20 week-old NOD mice treated 5×/week p.o. from 8 to 16 weeks of age with vehicle or with 0.03 μg/Kg Compound A. Positively selected CD4^+ cells (2×10^5 cells/well) were stimulated with PMA and ionomycin and analyzed by flow cytometry for IFN-γ (abscissa) and IL-2, IL-4 or IL-10 (ordinate) production. Acquisition was performed on CD4^+ cells. Percentage of positive cells, set according to the isotype-matched controls (not shown), are shown in the top corner of each quadrant. Dot plots are from a representative experiment out of four performed. Bar graphs represent the mean ±SE of four independent experiments using pooled cells from 3 to 4 mice. The P values were calculated by Mann-Whitney U test (* indicates P<0.05 vs. 8 week-old NOD mice).

[1] = CD4+ T cells from pancreatic lymph nodes, vs 30 week-old vehicle-treated or 8 week-old NOD mice

Question: With `C[C@H](C/C=C\C(O)(C(F)(F)F)C(F)(F)F)C1=CC[C@H]2/C(=C/C=C3C[C@@H](O)C[C@H](O)C3)CCC[C@]12C` [Compound A, 1,25-dihydroxy-16,23Z-diene-26,27-hexafluoro-19-nor vitamin D3] as the compound, how does the “CD4, CD8 and B cells in the grafts” value (aortic allografts) read?
Answer: Its value is “complete absence”.

Question: And the “number of macrophages and dendritic cells in the grafts” value (aortic allografts; vs vehicle)?
Answer: Its value is “profoundly reduced number”.

Question: What about the “reduction of IFN-γ-producing cells” value (CD4+ T cells; [1]) of the same compound?
Answer: Its value is 3 fold.

Question: And the “reduction of IL-2 producing cells” value (CD4+ T cells; [1])?
Answer: The value was 10 fold.

Question: And the IL-4-producing cells (CD4+ T cells; CD4+ cells, means of three experiments, 0.7±0.2% in 8 weeks old, 0.9±0.2% vehicle)?
Answer: The IL-4-producing cells was 2.5±0.3%.

Question: What about the IFN-γ-producing cells (CD4+ T cells; CD4+ pancreas-infiltrating cells, compared with vehicle-treated mice) of the same compound?
Answer: Its IFN-γ-producing cells is “similarly lower”.

Question: And the “IL-10-producing CD4+ cells” value (CD4+ T cells; mouse, in vivo)?
Answer: The value was “No increase”.
